Data on 12 molecules can be found in patent US5942248A, “Pharmaceutical composition containing a low detergent effect bile salt and an active compound that undergoes biliary excretion and/or enterohepatic recycling” (priority 1992, dated 1999).

Where two headings read alike, the source gives them in different places.

The conditions of series [1]: cited from earlier work.
For another series, the system named is gastrointestinal mucosa. The conditions noted are these: in vivo; cited from earlier work.
Series [2] deals with isolated perfused rat liver. Particulars: cited from earlier work.
The conditions of series [3]: pH 7.3 buffer, 37° C.; cited from earlier work.
Series [4] in a line: Stability of indomethacin in stored plasma samples. Format: physicochemical. Particulars: -20° C. On the procedure: The medication was taken with approx. 250 ml of boiled tap water. The zero time blood samples were taken within a 5 min period preceding the administration of the medication. Subsequent samples were taken at 0.5, 1.0, 1.5, 2.0, 2.5, 3.0, 4.0, 6.0, 8.0, 10.0 and 12.0 h. Blood samples were collected into lithium heparin tubes, gently mixed and centrifuged at 2.0×10^3 g.min within 15min of collection. Separated plasma was transferred into a clean tube and stored at -20° C. After a one week interval, the subjects received the alternative medication and the blood sampling protocol was repeated. Plasma samples were analysed by the HPLC method described by S. K. Cole et al (1992) Int. J. Pharm. 80, 63-73.

For series [5] the following is noted: cited from earlier work. This is another data set of the same source.
For series [6] the following is noted: cited from earlier work. This is another data set of the same source.
The test system of series [7] is heart transplant patients. Particulars: cyclosporine-induced cholestasis; cited from earlier work.
Series [8] has as its system isolated perfused rat liver. The conditions noted are these: cited from earlier work. This is another data set of the same source.
The test system of series [9] is subjects receiving gallstone dissolution therapy. Particulars: rather than chenodeoxycholate; cited from earlier work.
Series [10] concerns isolated human hepatocytes. The conditions noted are these: cited from earlier work.
The conditions of series [11]: aqueous solution; cited from earlier work.
The next series has as its system patients. The conditions noted are these: chronic active hepatitis, primary biliary cirrhosis, cystic fibrosis; cited from earlier work.
For a further series, the system named is rats. The conditions noted are these: induced by more detergent dihydroxy and trihydroxy bile acids; cited from earlier work.
Another series relates to human erythrocytes. The conditions noted are these: cited from earlier work.
In series [12] the test system is mono-layer cultures of isolated rat hepatocytes. Particulars: cited from earlier work.

For the molecule `CC1(C)S[C@@H]2[C@H](NC(=O)[C@H](N)c3ccccc3)C(=O)N2[C@H]1C(=O)O` [ampicillin], the “biliary excretion with exogenously added bile acids” value in [1] (variety of animal species) was “increased the biliary excretion”.
For the molecule `CC(=O)Oc1ccccc1C(=O)O` [aspirin], in the series on gastrointestinal mucosa, the “gastrointestinal bleeding / lesions” value is given as “gastrointestinal bleeding”.
As to `C=CC1=C(C)/C(=C/c2[nH]c(Cc3[nH]c(/C=C4\NC(=O)C(C)=C4C=C)c(C)c3CCC(=O)O)c(CCC(=O)O)c2C)NC1=O` [bilirubin], the “biliary excretion with exogenously added bile acids” value in series [1] (in vivo) is on record as “increased the biliary excretion”.
Consider `O=C1OC(c2ccc(O)c(S(=O)(=O)O)c2)(c2ccc(O)c(S(=O)(=O)O)c2)c2c(Br)c(Br)c(Br)c(Br)c21` [bromosulphthalein], for which, in [1] (variety of animal species), the “biliary excretion with exogenously added bile acids” value is given as “increased the biliary excretion”.
For the molecule `CN(C)CCCN1c2ccccc2Sc2ccc(Cl)cc21` [chlorpromiazine], the cholestasis caused result in [2] is “drug-induced cholestasis”.
As for `C[C@]12CC[C@@H]3c4ccc(O)cc4CC[C@H]3[C@@H]1CC[C@@H]2O[C@@H]1O[C@H](C(=O)O)[C@@H](O)[C@H](O)[C@H]1O` [estradiol-17-β-D-glucaronide], the cholestasis caused entry in [2] is “drug-induced cholestasis”.
Regarding `CC1(C)C(/C=C/C=C/C=C/C=C2\N(CCCCS(=O)(=O)O)c3ccc4ccccc4c3C2(C)C)=[N+](CCCCS(=O)(=O)[O-])c2ccc3ccccc3c21` [indocyamine green], the “biliary excretion with exogenously added bile acids” value in [1] (variety of animal species) is reported as “increased the biliary excretion”.
As to `COc1ccc2c(c1)c(CC(=O)O)c(C)n2C(=O)c1ccc(Cl)cc1` [indomethacin], the “dissolution in presence of sodium deoxycholate and sodium cholate” value in [3] is “enhance the dissolution”. Moreover, the “degradation of indomethacin in stored plasma” value in [4] was “No degradation of indomethacin was detected”. In addition, the “absorption rate in vivo with bile acids” value in [5] is recorded as “did not translate into an enhanced absorption rate in vivo”. In series [5] (in vivo), the “bioavailability with exogenously added bile acids” value is “increased the bioavailability of indomethacin” and the “inter-subject variation with exogenously added bile acids” value is “decreasing inter-subject variation”. Moreover, in [6] (in vivo), the “biliary clearance / enterohepatic circulation (in words)” value was “Extensive clearance of intact indomethacin into the bile”, the plasma clearance entry is “low plasma clearance”, the plasma half-life result was “short plasma half-life” and the route of excretion entry is listed as “mainly excreted via the hepato-biliaryroute”. For the same molecule, the volume distribution result in series [6] (in vivo) is reported as “low volume distribution”. Besides, the “extent of enterohepatic recycling” value in series [6] (man and animals) is recorded as 21-41%.
Regarding `CCC(Cc1c(I)cc(I)c(N)c1I)C(=O)O` (centres unmarked) [iopanoic acid], in [1] (in vivo), the “biliary excretion with exogenously added bile acids” value was “increased the biliary excretion”.
With `CCCCC1C(=O)N(c2ccccc2)N(c2ccccc2)C1=O` [phenylbutazone], the “dissolution in presence of sodium deoxycholate and sodium cholate” value in [3] was “enhance the dissolution”.
`CN1C(C(=O)Nc2ccccn2)=C(O)c2ccccc2S1(=O)=O` [piroxicam]: the “gastrointestinal bleeding / lesions” value in the series on gastrointestinal mucosa is “gastrointestinal bleeding”.
`C[C@H](CCC(=O)O)[C@H]1CC[C@H]2[C@@H]3[C@@H](O)C[C@@H]4C[C@H](O)CC[C@]4(C)[C@H]3CC[C@]12C` [ursodeoxycholate, Ursodeoxycholate]: in series [7], the “plasma levels of liver enzymes and bilirubin” value was “reverse the elevated plasma levels of liver enzymes and bilirubin”. Besides, the “detergent effect in isolated perfused rat liver” value in series [8] was “lack of detergent effect”. In series [9], the gastrointestinal side-effects entry was “decreased incidence of gastrointestinal side-effects” and the “hepatic enzyme levels in plasma” value is “lower hepatic intracellar enzyme levels”. Besides, the “detergent effect in isolated human hepatocytes” value in series [10] is on record as “lack of detergent effect”. In addition, the CMC in series [11] is 1 to 3 mM. Also, in the series with patients, the “measures of hepatic damage” value was “reverse measures of hepatic damage”. For the same molecule, the “reversal of drug-induced cholestasis” value in [2] (caused by estradiol-17-β-D-glaucaronide and chlorpromazine) is recorded as “reverse drug-induced cholestasis”. For the same molecule, the “biliary excretion of membrane enzymes” value with rats is “reduces the biliary excretion of membrane enzymes”. The “prevention of toxicological effects of more detergent bile acids” value in the series with human erythrocytes was “prevent the toxicological effects of more detergent bile acids”. In addition, the “prevention of toxicological effects of more detergent bile acids” value in series [12] is recorded as “prevent the toxicological effects of more detergent bile acids”.
